Data taken from patent publication US20120283217A1, “MODULATORS OF AMYLOID-BETA PRODUCTION” (SATORI PHARMACEUTICALS, INC., priority 2006, published 2012).

**Q.** Which melting point does the source give for `C/C=C1/CCC2C3CC=C4C[C@@H](O)CC[C@]4(C)C3CC[C@]12C` (stereo partly shown) here?
**A.** The melting point was 168 to 170 °C.

**Q.** For `C/C=C1/C(O)CC2C3CC=C4C[C@@H](O)CC[C@]4(C)C3CC[C@]12C` (stereo partly shown), which melting point is on record?
**A.** Its melting point is 151 to 154 °C.

**Q.** Which melting point does the source give for `C/C=C1/C(=O)CC2C3CC=C4C[C@@H](O)CC[C@]4(C)C3CC[C@]12C` (stereo partly shown) here?
**A.** Its melting point is 124 to 126 °C.

**Q.** For `C[C@H](C#N)[C@H]1C(=O)C[C@H]2[C@@H]3CC=C4C[C@@H](O)CC[C@]4(C)[C@H]3CC[C@]12C`, which melting point is on record?
**A.** The melting point was 124 to 126 °C.

**Q.** For `C=C[C@@H](C)[C@H]1C(=O)CC2C3CC=C4C[C@@H](O)CC[C@]4(C)C3CC[C@@]21C` (stereo partly shown), which melting point is on record?
**A.** Its melting point is 125 to 127 °C.

**Q.** Which melting point does the source give for `C=C[C@@H](C)[C@H]1[C@H](O)C[C@H]2[C@@H]3CC=C4C[C@@H](O[Si](C)(C)C(C)(C)C)CC[C@]4(C)[C@H]3CC[C@]12C` here?
**A.** Its melting point is 156 to 158 °C.

**Q.** With `C=C[C@@H](C)[C@H]1C2(CC3C4CC=C5C[C@@H](O[Si](C)(C)C(C)(C)C)CC[C@]5(C)C4CC[C@@]31C)OCCO2` (stereo partly shown) as the compound, how does the melting point read?
**A.** The melting point was 112 to 114 °C.

**Q.** With `C[C@H](C(O)CO)C1C(=O)C[C@H]2[C@@H]3CC=C4C[C@@H](O[Si](C)(C)C(C)(C)C)CC[C@]4(C)[C@H]3CC[C@]12C` (stereo partly shown) as the compound, how does the melting point read?
**A.** Its melting point is 172 to 175 °C.

**Q.** For `C[C@H](C1CO1)[C@H]1C(=O)C[C@H]2[C@@H]3CC=C4C[C@@H](O[Si](C)(C)C(C)(C)C)CC[C@]4(C)[C@H]3CC[C@]12C` (stereo partly shown), which melting point is on record?
**A.** Its melting point is 103 to 104 °C.

**Q.** Which melting point does the source give for `C/C=C1\C(=O)C[C@H]2[C@@H]3CC=C4C[C@@H](O)CC[C@]4(C)[C@H]3CC[C@]12C` here?
**A.** The melting point was 112 to 113 °C.

**Q.** For `CC(=O)O[C@H]1CC[C@]23C[C@]24CC[C@]2(C)[C@@H]([C@H](C)CCC5(C(C)C)CO5)CC[C@@]2(C)[C@@H]4CC[C@H]3C1(C)C` (stereo partly shown), which melting point is on record?
**A.** The melting point was 129 to 131 °C.

**Q.** Which melting point does the source give for `CC(=O)O[C@H]1CC[C@]23C[C@]24CC[C@]2(C)[C@@H]([C@H](C)CCC5OC5(C)C)CC[C@@]2(C)[C@@H]4CC[C@H]3C1(C)C` (stereo partly shown) here?
**A.** The melting point was 141 to 143 °C.

**Q.** For `C=C[C@@H](C)[C@H]1CC[C@@]2(C)[C@@H]3CC[C@H]4C(C)(C)[C@@H](OC(C)=O)CC[C@@]45C[C@@]35CC[C@]12C`, which melting point is on record?
**A.** Its melting point is 145 to 147 °C.

**Q.** With `CC(=O)O[C@H]1CC[C@]23C[C@]24CC[C@]2(C)[C@@H]([C@H](C)CCC(=O)C(F)(F)F)CC[C@@]2(C)[C@@H]4CC[C@H]3C1(C)C` as the compound, how does the melting point read?
**A.** Its melting point is 133 to 135 °C.

**Q.** For `CC(=O)O[C@H]1CC[C@]23C[C@]24CC[C@]2(C)[C@@H]([C@H](C)CCC(O)C(C)C)CC[C@@]2(C)[C@@H]4CC[C@H]3C1(C)C` (stereo partly shown), which melting point is on record?
**A.** The melting point was 126 to 128 °C.

**Q.** Which melting point does the source give for `CC(=O)O[C@H]1CC[C@]2(C)C3CC[C@]4(C)[C@@H]([C@H](C)CC(=O)O)CC[C@@]4(C)C3CCC2C1(C)C` (stereo partly shown) here?
**A.** Its melting point is 203 to 205 °C.

**Q.** With `COC(=O)C(=O)C[C@@H](C)[C@H]1CC[C@@]2(C)C3CCC4C(C)(C)[C@@H](OC(C)=O)CC[C@]4(C)C3CC[C@]12C` (stereo partly shown) as the compound, how does the melting point read?
**A.** Its melting point is 125 to 127 °C.

**Q.** Which melting point does the source give for `CC(C)(C)[Si](C)(C)O[C@H]1CC[C@@]2(C)[C@@H](CC[C@@H]3[C@@H]2CC[C@]2(C)C(=O)CC[C@@H]32)C1` here?
**A.** The melting point was 159 to 162 °C.

**Q.** With `C=C[C@@H](C)[C@H]1C(=O)C[C@H]2[C@@H]3CC[C@H]4C[C@@H](O[Si](C)(C)C(C)(C)C)CC[C@]4(C)[C@H]3CC[C@]12C` as the compound, how does the melting point read?
**A.** Its melting point is 132 to 134 °C.

**Q.** For `C/C=C1\C(=O)C[C@H]2[C@@H]3CC=C4C[C@@H](O[Si](C)(C)C(C)(C)C)CC[C@]4(C)[C@H]3CC[C@]12C`, which melting point is on record?
**A.** Its melting point is 138 to 142 °C.

**Q.** Which melting point does the source give for `C/C=C1/CC[C@H]2[C@@H]3CC[C@H]4C[C@@H](O[Si](C)(C)C(C)(C)C)CC[C@]4(C)[C@H]3CC[C@]12C` (stereo in doubt) here?
**A.** Its melting point is 136 to 137 °C.

**Q.** For `C/C=C1/[C@H](O)C[C@H]2[C@@H]3CC[C@H]4C[C@@H](O[Si](C)(C)C(C)(C)C)CC[C@]4(C)[C@H]3CC[C@]12C` (stereo in doubt), which melting point is on record?
**A.** Its melting point is 145 to 147 °C.

**Q.** With `C/C=C1/C(=O)C[C@H]2[C@@H]3CC[C@H]4C[C@@H](O[Si](C)(C)C(C)(C)C)CC[C@]4(C)[C@H]3CC[C@]12C` (stereo in doubt) as the compound, how does the melting point read?
**A.** Its melting point is 210 to 212 °C.

**Q.** With `CC(=O)O[C@H]1CC[C@]23C[C@]24CC[C@]2(C)[C@@H]([C@H](C)CCC(=O)O)CC[C@@]2(C)C4CCC3C1(C)C` (stereo in doubt) [Compound I-4, 3-β-O-acetyl-25,26,27-Trinorcycloartan-24-oic acid] as the compound, how does the melting point read?
**A.** Its melting point is 201 to 212 °C.

**Q.** With `C/C=C1/C(O)CC2C3CC=C4C[C@@H](O[Si](C)(C)C(C)(C)C)CC[C@]4(C)C3CC[C@]12C` (stereo in doubt) [Compound I-7] as the compound, how does the melting point read?
**A.** Its melting point is 137 to 139 °C.

**Q.** For `CC(C#N)[C@H]1[C@@H](O)CC2C3CC=C4C[C@@H](O[Si](C)(C)C(C)(C)C)CC[C@]4(C)C3CC[C@@]21C` (stereo in doubt) [Compound I-10], which melting point is on record?
**A.** Its melting point is 290 to 292 °C.

**Q.** For `CC(=O)O[C@H]1CC[C@]23C[C@]24CC[C@]2(C)[C@@H]([C@H](C)CC(=O)O)CC[C@@]2(C)C4CCC3C1(C)C` (stereo in doubt) [Compound I-17, 3β-Acetoxy-9,19-Cyclo-4,4,14-trimethyl-24-norchol-23-oic acid], which melting point is on record?
**A.** The melting point was 222 to 224 °C.

**Q.** With `CC(=O)O[C@H]1CC[C@]23C[C@]24CC[C@]2(C)[C@@H]([C@H](C)CC(=O)C(F)(F)F)CC[C@@]2(C)C4CCC3C1(C)C` (stereo in doubt) [Compound I-18, 3β-Acetoxy-9,19-Cyclo-4,4,14-trimethyl-23-oxo-24-trifluorocholane] as the compound, how does the melting point read?
**A.** Its melting point is 170 to 173 °C.

**Q.** With `CC(=O)O[C@H]1CC[C@]23C[C@]24CC[C@]2(C)[C@@H]([C@H](C)CC(=O)C(C#N)=P(c5ccccc5)(c5ccccc5)c5ccccc5)CC[C@@]2(C)C4CCC3C1(C)C` (stereo in doubt) [Compound I-19] as the compound, how does the melting point read?
**A.** The melting point was 203 to 205 °C.

**Q.** For `COC(=O)C(=O)C[C@@H](C)[C@H]1CC[C@@]2(C)C3CCC4C(C)(C)[C@@H](OC(C)=O)CC[C@@]45C[C@@]35CC[C@]12C` (stereo in doubt) [Compound I-20], which melting point is on record?
**A.** Its melting point is 120 to 122 °C.

**Q.** With `CC(=O)O[C@H]1CC[C@]23C[C@]24CC[C@]2(C)[C@@H]([C@H](C)CCC(=O)C(C)C)CC[C@@]2(C)C4CCC3C1(C)C` (stereo partly drawn) [Compound I-3, 24-Oxocycloartanol-3-β-O-acetate] as the compound, how does the melting point read?
**A.** The melting point was 119 to 121 °C.

**Q.** Which melting point does the source give for `C/C=C1/CC[C@H]2[C@@H]3CC=C4C[C@@H](O[Si](C)(C)C(C)(C)C)CC[C@]4(C)[C@H]3CC[C@]12C` [Compound I-6] here?
**A.** The melting point was 128 to 130 °C.

**Q.** For `C/C=C1/C(=O)C[C@H]2[C@@H]3CC=C4C[C@@H](O[Si](C)(C)C(C)(C)C)CC[C@]4(C)[C@H]3CC[C@]12C` [Compound I-8], which melting point is on record?
**A.** The melting point was 161 to 163 °C.

**Q.** With `CC(C)(C)[Si](C)(C)O[C@H]1CC[C@@]2(C)C(=CC[C@@H]3[C@@H]2CC[C@]2(C)C(=O)CC[C@@H]32)C1` [Compound I-13] as the compound, how does the melting point read?
**A.** The melting point was 150 to 152 °C.
